Experimental data as given in patent US5639783A, “Ketone derivatives” (Mitsubishi Chemical Corporation, priority 1991, dated 1997).
Read-outs that look alike come from different tables or passages of the source.

Columns and labels:
cathepsin L = biological target: T1, cathepsin L (Rattus norvegicus, UniProt P07154); assay: Thiol protease inhibitory activity, cathepsin L purified from rat kidney; type: biochemical; settings: Table 3
T1 construct: Cathepsin L was purified from rat kidney; from tissue; host or cells: rat kidney
Procedure: Inhibitory activity against papain (P-3125, Sigma) and cathepsin B (C-6286, Sigma) was assayed according to the method described in a literature [Biochemical Journal, 201, 189 (1982)]. Cathepsin L was purified from rat kidney according to the method in a literature [Journal of Biochemistry, 100, 35 (1986)], and the inhibitory activity against it was assayed in the same manner as described in the above literature for cathepsin B. Furthermore, m-calpain was purified from rat brain according to a known method [Journal of Biological Chemistry, 254, p. 3210 (1984)] and the inhibitory activity against it was assayed by a method described in a literature [Journal of Biological Chemistry, 259, 12489 (1984)]. It is evident from Tables 3 and 4 that the compounds of the present invention have a potent inhibitory activity against thiol proteases such as papain, cathepsin B, cathepsin L or m-calpain.

papain = biological target: T2, papain (Carica papaya, UniProt P00784); assay: Thiol protease inhibitory activity, papain (P-3125, Sigma); type: biochemical
T2 sequence (P00784 134-345): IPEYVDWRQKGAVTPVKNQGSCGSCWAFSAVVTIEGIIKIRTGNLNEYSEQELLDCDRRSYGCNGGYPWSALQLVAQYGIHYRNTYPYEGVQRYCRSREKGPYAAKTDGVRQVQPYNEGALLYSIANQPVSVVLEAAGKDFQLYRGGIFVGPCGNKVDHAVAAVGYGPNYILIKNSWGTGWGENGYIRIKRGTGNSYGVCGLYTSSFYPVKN
Method in brief: (§1)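 Papain and bovine cathepsin B assayed by a published method; cathepsin L purified from rat kidney and assayed in the same manner as cathepsin B. m-Calpain purified from rat brain and assayed by a separate published procedure.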

m-calpain [1] = biological target: T3, m-calpain (Rattus norvegicus, UniProt Q07009); assay: Thiol protease inhibitory activity, m-calpain purified from rat brain; type: biochemical; settings: Table 3
T3 construct: m-calpain was purified from rat brain; from tissue; host or cells: rat brain
T3 sequence (Q07009 20-700 limits assumed): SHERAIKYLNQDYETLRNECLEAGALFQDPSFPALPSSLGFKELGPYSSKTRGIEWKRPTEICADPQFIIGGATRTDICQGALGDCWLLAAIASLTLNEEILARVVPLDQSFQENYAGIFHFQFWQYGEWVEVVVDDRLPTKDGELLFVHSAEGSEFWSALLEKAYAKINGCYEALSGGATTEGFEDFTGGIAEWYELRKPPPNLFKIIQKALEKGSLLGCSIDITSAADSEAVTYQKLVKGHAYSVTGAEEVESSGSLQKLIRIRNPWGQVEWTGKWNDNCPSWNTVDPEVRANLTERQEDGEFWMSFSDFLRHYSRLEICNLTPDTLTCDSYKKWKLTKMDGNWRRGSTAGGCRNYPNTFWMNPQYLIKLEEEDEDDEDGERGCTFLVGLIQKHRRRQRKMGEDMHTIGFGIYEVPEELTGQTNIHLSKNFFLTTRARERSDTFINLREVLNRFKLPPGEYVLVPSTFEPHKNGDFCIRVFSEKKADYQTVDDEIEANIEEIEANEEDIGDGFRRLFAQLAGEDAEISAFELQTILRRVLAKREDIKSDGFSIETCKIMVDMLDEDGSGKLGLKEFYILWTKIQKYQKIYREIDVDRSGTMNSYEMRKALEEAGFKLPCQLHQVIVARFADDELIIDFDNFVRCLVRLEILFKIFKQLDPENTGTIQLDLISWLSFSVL
T3 sequence (Q64537 1-270 partner): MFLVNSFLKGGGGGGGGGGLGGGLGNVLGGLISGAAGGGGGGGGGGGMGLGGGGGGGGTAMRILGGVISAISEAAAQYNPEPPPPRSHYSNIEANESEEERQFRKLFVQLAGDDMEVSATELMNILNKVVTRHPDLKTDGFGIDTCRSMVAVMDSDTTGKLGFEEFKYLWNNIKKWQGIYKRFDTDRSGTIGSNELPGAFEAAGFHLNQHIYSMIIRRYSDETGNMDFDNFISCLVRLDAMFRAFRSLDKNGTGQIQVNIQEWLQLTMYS
Method in brief: as §1

m-calpain [2] = biological target: T3, m-calpain; assay: Confirmation of reversible inhibitory activity (remaining m-calpain activity after incubation with inhibitor); type: biochemical; settings: incubated 0 to 20 minutes at 10° C.; 10 μM-150 μM inhibitor solution (1 μl); FIGS. 1 to 3
Procedure: According to the assay for inhibitory activity against calpain in Experiment 1, reversible inhibitory activity of the present compounds was confirmed as follows.
To an imidazole buffer (54 μl ) were added 500 mM CaCl2 solution (1 μl), 5 mM solution of the synthetic substrate described in the literature (4 μl), 10 μM-150 μM inhibitor solution (1 μl) and m-calpain solution (40 μl), and the mixture was incubated for 0 to 20 minutes at a temperature of 10° C. Then, 100 mM EDTA solution (5 μl) was added to inactivate the enzymatic activity. To the mixture was then added imidazole buffer (900 μl) followed by an addition of 5 mM synthetic substrate solution (40 μl) and 500 mM CaCl2 solution (10 μl), and the decomposition rate of the synthetic substrate was measured for 10 minutes at a temperature of 30° C. to determine the remaining activity of the enzyme.
The compounds of Examples 3, 113 and 190 were used as the inhibitor, and E-64 which is an irreversible inhibitor was also used for comparison.

cathepsin B = biological target: T4, cathepsin B (Bos taurus, UniProt P07688); assay: Thiol protease inhibitory activity, cathepsin B (C-6286, Sigma); type: biochemical; settings: Table 3
T4 construct: purchased Sigma C-6286
Method in brief: as §1

in vivo = settings: rat, po
Procedure: The LD50 value of the compound prepared in Example 94 was: >2,000 mg/kg.

[3] = tested on: microtubule-associated protein; settings: Brain Research, 526, p. 177 (1990); cited from earlier work
aggregation of platelet = settings: Thrombosis Research, 57, p. 847 (1990); cited from earlier work
[4] = tested on: experimental muscular dystrophy hamster; settings: Journal of Pharmacobio dynamics, 10, 678 (1987); cited from earlier work
[5] = tested on: rat which has an enhanced bone destruction by administration of parathyroid hormone; settings: cited from earlier work
cataract animal models = settings: Investigative Ophthalmology & Visual Science, 32, p. 533 (1991); cited from earlier work
production of IgE = settings: The Journal of Antibiotics, 42, p. 1362 (1989); cited from earlier work
[6] = tested on: cardiac infarction animal models; settings: Arzneimittel Forschung/Drug Research, 36 (1986); cited from earlier work
[7] = tested on: axon in brain trauma models of rat; settings: Journal of Neurosurgery, 65, p. 92 (1986); cited from earlier work

T1 sequence (P07154 114-334): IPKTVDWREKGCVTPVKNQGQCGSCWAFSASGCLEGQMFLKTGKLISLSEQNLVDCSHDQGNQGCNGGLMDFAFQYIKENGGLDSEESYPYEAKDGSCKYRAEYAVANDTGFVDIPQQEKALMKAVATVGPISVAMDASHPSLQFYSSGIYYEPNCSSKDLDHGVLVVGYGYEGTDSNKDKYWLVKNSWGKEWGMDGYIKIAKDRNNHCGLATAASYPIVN

Structure (SMILES)	IC50 (cathepsin L)	IC50 (m-calpain [1])	remaining enzymatic activity after incubation with inhibitor (reversible inhibition) (m-calpain [2])	IC50 (cathepsin B)	also measured
CCCC[C@H](NC(=O)[C@H](CC(C)C)NC(=O)COc1ccccc1)C(=O)CSCc1ccco1 [3 (No. 82), (s)-1-furfurylthio-3-((s)-4-methyl-2-phenoxyacetylaminovalerylamino)-2-heptanone]	0.016 µM	3.3 µM	activity nearly equal to that of a control remained	0.71 µM	IC50 (papain): 0.26 µM
CCCC[C@H](NC(=O)[C@H](CC(C)C)NC(=O)c1cc(=O)c2ccccc2o1)C(=O)CSCc1ccco1 [94 (No. 188), (s)-1-furfurylthio-3-[(s)-4-methyl-2-(4-oxo-4H-1-benzopyranylcarbonylamino)valerylamino]-2-heptanone]	0.024 µM	9.2 µM		1.1 µM	LD50 at 168 h (in vivo): > 2000 mg/kg; IC50 (papain): 0.77 µM
CC(C)C[C@H](NC(=O)OCc1ccccc1)C(=O)N[C@@H](Cc1ccccc1)C(=O)CN(C)C [190 (No. 465), (s)-3-((s)-2-benzyloxycarbonylamino-4-methylvalerylamino)-1-dimethylamino-4-phenyl-2-butanone]	2.8 µM	7.3 µM	activity nearly equal to that of a control remained	1.6 µM	IC50 (papain; Table 3, read-out: IC50 papain): 40 µM
CC(C)C[C@H](NC(=O)COc1ccccc1)C(=O)N[C@@H](CCc1ccccc1)C(=O)CSCc1ccco1 [206 (No. 543), (s)-1-furfurylthio-3-((s)-4-methyl-2-phenoxyacetylaminovalerylamino)-5-phenyl-2-pentanone]	0.62 µM	15 µM		0.82 µM	IC50 (papain): 6 µM
CC(C)C[C@H](NC(=O)COc1ccccc1)C(=O)NC(Cc1cccc2ccccc12)C(=O)CSCc1ccco1 (stereo partly drawn) [209 (No. 555), l-furfurylthio-3-((s)-4-methyl-2-phenoxyacetylaminovalerylamino)-4-(1-naphtyl)-2-butanone]	1.5 µM	19 µM		6.5 µM	IC50 (papain; Table 3, read-out: IC50 papain): 9 µM
CC(C)C[C@H](NC(=O)OCc1ccccc1)C(=O)N[C@@H](CCC(=O)O)C(=O)CSCc1ccco1 [217 (No. 600), (s)-4-((s)-2-benzyloxycarbonylamino-4-methylvalerylamino)-6-furfurylthio-5-oxohexanoic Acid]	11 µM	19 µM		2.5 µM	IC50 (papain; Table 3, read-out: IC50 papain): 26 µM
CC(C)CCNC(=O)[C@H](CC(C)C)NC(=O)[C@H]1O[C@@H]1C(=O)O [E-64-C]					degradation of microtubule-associated protein after brain ischemia [3]: inhibits the degradation of microtubule-associated protein after the brain ischemia
CCOC(=O)[C@H]1O[C@@H]1C(=O)N[C@@H](CC(C)C)C(=O)NCCC(C)C [E-64-d]					aggregation of platelet caused by thrombin (aggregation of platelet): suppressed aggregation of platelet caused by thrombin; effect in experimental muscular dystrophy hamster [4]: life-prolonging effect
CC(C)C[C@H](NC(=O)[C@H]1O[C@@H]1C(=O)O)C(=O)NCCCCNC(=N)N [E-64]			enzymatic activity rapidly disappeared in proportion to the incubation period		calcium concentration and hydroxyproline concentration in blood [5]: decrease of calcium concentration and hydroxyproline concentration in blood; effect on cataract (cataract animal models): effective on cataract in animal models
NC(N)=NCCCCNC(=O)[C@H](Cc1ccccc1)NC(=O)[C@H]1O[C@@H]1C(=O)O [Estatin A]					calcium concentration and hydroxyproline concentration in blood [5]: decrease of calcium concentration and hydroxyproline concentration in blood; production of IgE (production of IgE): specifically inhibit the production of IgE without affecting on the production of IgG
CSCC(=O)[C@H](Cc1ccccc1)NC(=O)[C@H](CC(C)C)NC(=O)OCc1ccccc1 [Example 113, (s)-3-((s)-2-benzyloxycarbonylamino-4-methylvalerylamino)-1-methylthio-4-phenyl-2-butanone]			activity nearly equal to that of a control remained		
CCOC(=O)[C@@H]1O[C@H]1C(=O)NC(CC(C)C)C(=O)N1CCN(Cc2ccc(OC)c(OC)c2OC)CC1.CCOC(=O)[C@@H]1O[C@H]1C(=O)NC(CC(C)C)C(=O)N1CCN(Cc2ccc(OC)c(OC)c2OC)CC1.O=S(=O)(O)O (some centres unmarked) [NCO-700]					effect on cardiac infarction [6]: effective on cardiac infarction
CC(=O)N[C@@H](CC(C)C)C(=O)N[C@@H](CC(C)C)C(=O)N[C@H](C=O)CCCNC(=N)N [leupeptin]					protection of axon in brain trauma models [7]: can protect axon
